Test results as given in US20150352134A1, “COMPOSITION FOR TOPICAL SKIN APPLICATION CONTAINING GINSENOSIDE F2 DERIVED FROM HYDROPONIC GINSENG” (AMOREPACIFIC CORPORATION, priority 2012, published 2015).

Experiments:
Assay type in all cases: cell-based
[1] = target: T1, 5α-reductase (Homo sapiens, UniProt P31213); assay: 5α-reductase activity inhibition, conversion of [14C]testosterone to DHT in HEK293-5α R2 cells; conditions: 2 hours
T1 construct: 3×FLAG; expressed in transfected cells; host or cells: HEK293
T1 sequence (P31213 1-254): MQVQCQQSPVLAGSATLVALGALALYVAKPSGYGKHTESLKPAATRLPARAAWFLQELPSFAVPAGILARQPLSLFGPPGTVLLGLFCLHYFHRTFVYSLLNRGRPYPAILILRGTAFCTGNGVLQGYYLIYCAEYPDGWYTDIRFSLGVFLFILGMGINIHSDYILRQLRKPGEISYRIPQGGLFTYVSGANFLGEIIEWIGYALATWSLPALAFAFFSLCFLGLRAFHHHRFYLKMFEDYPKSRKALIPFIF
Protocol: In order to evaluate the inhibitory effect on the activity of 5α-reductase, the conversion rate from [^14C]testosterone to [^14C]dihydrotestosterone (DHT) in HEK293-5α R2 cells is measured. P3×FLAG-CMV-5α R2 is transduced into HEK293 cells, which are cultured in a 24-well plate at a rate of 2.5×10^5 cells per well (Park et al., 2003, JDS. Vol. 31, pp. 191-98). The next day, the used culture medium is replaced with a new culture medium containing an enzyme substrate and an inhibitor. The substrate of the culture medium is 0.05 μCi [^14C]testosterone (Amersham Pharmacia Biotech, UK).
To evaluate the degree of 5α-reductase activity inhibition, the cells are treated with ginsenoside F2 and then cultured in a 5% CO2 incubator at 37° C. for 2 hours. In this regard, the negative control is the group not treated with ginsenoside F2, while the positive control is the group treated with finasteride. Subsequently, the culture medium is collected to extract steroids with 800 μl of ethylacetate, and the supernatant organic solvent phase is isolated and dried. The residue is dissolved in 50 μl of ethylacetate and developed on silica plastic sheet kieselgel 60 F254 using an ethylacetate-hexane (1:1) solvent.
The plastic sheet is dried out in the air and measured in regards to the abundance of isotope using a bath system. The dry plastic sheet together with an X-ray film is put in a bath cassette. After one week, the abundance of isotope of testosterone and dihydrotestosterone remaining on the film is measured to calculate the conversion rate and the inhibition rate according to the following mathematical formulas 5 and 6, respectively.

[2] = tested on: prostaglandin generation in macrophagocytes collected from the abdominal cavity of a mouse; assay: Prostaglandin generation inhibition in LPS-treated macrophagocytes (ELISA); conditions: 100 μl of ginsenoside F2
Protocol: The inflammatory effect is evaluated in terms of the inhibitory effect on prostaglandin generation. Ginsenoside F2 is used to measure the effect on macrophagocytes. Firstly, macrophagocytes collected from the abdominal cavity of a mouse are treated with aspirin to have the final concentration of 500 µM, causing irreversible inhibition on the activity of cyclooxygenase (COX) remaining in the macrophagocytes. Then, 100 μl of the suspension is put in each well of a 96-well culture plate and cultured in an incubator under the conditions of 5% CO2 and 37° C. for 2 hours to immobilize the macrophagocytes on the surface of the container. Subsequently, the immobilized macrophagocytes are washed with PBS three times and used in the inflammatory improvement test. […] Then, the macrophagocytes are treated with 100 μl of ginsenoside F2, and the isolated prostaglandin is quantitatively analyzed by way of ELISA (Enzyme-Linked ImmunoSorbent Assey).
In this regard, the prostaglandin generation inhibitory activity of the ginsenoside F2 is determined by the reduced amount of prostaglandin generated in the LPS-treated group in comparison with the case of the control in terms of the percentage amount of the prostaglandin decreased by treatment with LPS and the sample, while the difference in the amount of the generated prostaglandin between the LPS-treated group and the control group is set to 100%.

[3] = target: T2, PAR-2 (Homo sapiens, UniProt P55085); assay: Itching relief: inflow of Ca2+ into HaCaT keratinocytes after trypsin or PAR-2 activated peptide
T2 construct: host or cells: HaCaT keratinocytes
T2 sequence (P55085 26-397): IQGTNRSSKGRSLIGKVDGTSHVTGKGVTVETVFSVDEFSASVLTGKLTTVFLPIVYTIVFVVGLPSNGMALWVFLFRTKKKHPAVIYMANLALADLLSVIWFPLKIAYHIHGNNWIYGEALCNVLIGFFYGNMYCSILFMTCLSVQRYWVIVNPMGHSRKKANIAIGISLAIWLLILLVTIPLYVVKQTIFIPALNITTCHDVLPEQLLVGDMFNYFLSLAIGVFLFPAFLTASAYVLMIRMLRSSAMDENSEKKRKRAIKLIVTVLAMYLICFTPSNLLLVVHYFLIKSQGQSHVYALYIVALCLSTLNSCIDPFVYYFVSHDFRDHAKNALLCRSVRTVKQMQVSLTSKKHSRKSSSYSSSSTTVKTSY
Protocol: One day before the testing, keratinocytes (HaCaT purchased from ATCC) are injected into a 96-well plate at a rate of 4×10^4 cells/well and cultured in an incubator under conditions of 5% CO2 and 37° C. for 24 hours. After 24 hours, the culture plate is washed with HBSS (Hank's Balanced Salt Solution) buffer twice, and a reaction buffer (2 μM Fluo-4-AM, 20% pluronic acid, 2.5 mM probenecid) is added to the cells. The culture plate is kept in an incubator under conditions of 5% CO2 and 37° C. for 30 minutes and allowed to react at the room temperature for 30 minutes. Then, the culture plate is washed with HBSS buffer twice, and the cells are treated with ginsenoside F2 at a concentration (%) as given in Table 25.
After completion of the reaction for 10 minutes, the cells are treated with 2 U/ml trypsin or 5 μM PAR-2 activated peptide (SLIGKV), and then the change of Ca^2+ concentration in the cells for 80 seconds is measured. The measurement method uses FlexStation3® (Molecular Device, U.S.A.). The difference between minimum and maximum flex values for 80 seconds after treatment with 2 U/ml trypsin or 5 μM PAR-2 activated peptide (SLIGKV) in combination with ginsenoside F2 is compared with the difference between minimum and maximum flex values for 80 seconds after treatment with 2 U/ml trypsin or 5 μM PAR-2 activated peptide (SLIGKV) alone.

CC(C)=CCC[C@](C)(O[C@@H]1O[C@H](CO)[C@@H](O)[C@H](O)[C@H]1O)[C@H]1CC[C@]2(C)[C@@H]1[C@H](O)C[C@@H]1[C@@]3(C)CC[C@H](O[C@@H]4O[C@H](CO)[C@@H](O)[C@H](O)[C@H]4O)C(C)(C)[C@@H]3CC[C@]12C [Ginsenoside F2, ginsenoside F2]
Inhibition rate (%) ([1]; 5α-reductase activity): 59.7% | Conversion rate (%) ([1]; testosterone to dihydrotestosterone): 15.4% | prostaglandin generation (Blank = 100%) [2]: 24.2% | Inhibition rate (%) on inflow of Ca^2+ into cells, Trypsin (2 U/ml) ([3]; 0.05% ginsenoside F2): 23% | Inhibition rate (%) on inflow of Ca^2+ into cells, Trypsin (2 U/ml) ([3]; 0.1% ginsenoside F2): 30% | Inhibition rate (%) on inflow of Ca^2+ into cells, Trypsin (2 U/ml) ([3]; 1.0% ginsenoside F2): 41% | inhibition at 0.05 % ([3]; HaCaT, 0.05% ginsenoside F2, read-out: Inhibition rate (%) on inflow of Ca^2+ into cells, PAR-2 activated peptide (5 μM)): 26% | inhibition at 0.1 % ([3]; HaCaT, 0.1% ginsenoside F2, read-out: Inhibition rate (%) on inflow of Ca^2+ into cells, PAR-2 activated peptide (5 μM)): 35% | inhibition at 0.5 % ([3]; HaCaT, 0.5% ginsenoside F2, read-out: Inhibition rate (%) on inflow of Ca^2+ into cells, PAR-2 activated peptide (5 μM)): 40% | inhibition at 1 % ([3]; HaCaT, 1.0% ginsenoside F2, read-out: Inhibition rate (%) on inflow of Ca^2+ into cells, PAR-2 activated peptide (5 μM)): 47%
